From paper PMC9132363 (Journal of Medicinal Chemistry, 2022)
Where a name gives a salt, the structure may show the parent alone. Read-outs that look alike come from different tables or passages of the source.

What was measured:
MTT viability assay = format: cell-based, human; conditions: human, HEK293T cells, HEK293T, 16 h, read-out: Cell viability (MTT)
Procedure: (§1) HEK293T cells were plated in 24-well culture plates (75,000 cells/well) and incubated in a CO2 incubator. The next day, treatment was given according to the experimental requirement. Sixteen hours later, 50 μL of MTT solutions from the stock (5 mg/mL) was added, and cells were incubated in a CO2 incubator in the dark for 2 h. The medium was removed, and formazan crystals formed by the cells were dissolved using 500 μL of DMSO followed by transfer in 96-well plates. The absorbance was read at a 570 nm wavelength on a multiwell plate reader.[70]

HEK293T cells = experiment: MTT viability assay; format: cell-based, human; conditions: 20 µM, Table S3
Procedure: as §1

[1] = DPPH radical scavenging assay; format: physicochemical; conditions: for EC50: 80% MeOH, 30 min, 517 nm, read-out: Radical scavenging activity EC50 (DPPH method); for IC50: supplementary CSV
Procedure: The antioxidant activity was determined by the 2,2-diphenyl-1-picrylhydrazyl hydrate (DPPH) assay.[65]−[67] All the measurements were performed in an 80% MeOH solution, with the final reaction volume being 3 mL. A stock of DPPH solution in DMSO (10^–2 M) was prepared and stored at −20 °C, and the same procedure was performed with the antioxidant solution. Then, the DPPH stock solution was diluted to 2 mL with a final concentration of 150 μM (final volume of 3 mL and final concentration of 100 μM). The antioxidant stock was sequentially diluted to 1 mL at 3, 9, 30, 90, and 300 μM (final volume of 3 mL and final concentrations of 1, 3, 10, 30, and 100 μM). The mixture was incubated at room temperature for 30 min. Once this time had passed, the absorbance was measured in a spectrophotometer at 517 nm. Trolox, caffeic acid, and ferulic acid were used as a standard (1, 3, 10, 30, and 100 μM final concentrations). A blank using 80% MeOH solution instead of the corresponding antioxidant was used in each assay. Two independent measurements of each sample were performed. Data were processed using Origin software, and sigmoidal fitting according to the DoseResp function was performed to extrapolate the IC50 (μM) of each antioxidant.

ROCK-II (ROKa) = ROCK-II (ROKa) (Rattus norvegicus, UniProt Q62868); experiment: ROCK inhibition studies (33P-ATP, Long S6 substrate peptide); format: biochemical; conditions: for remaining activity at 10 µM: 0.5 h, supplementary CSV, read-out: ROCK2 activity @ 10microM; for IC50: Table 3, read-out: ROCK2 inhibition IC50; for ROCK2 inhibition potency compared with fasudil: in words
Chain of ROCK-II (ROKa) (Q62868 2-543 limits assumed): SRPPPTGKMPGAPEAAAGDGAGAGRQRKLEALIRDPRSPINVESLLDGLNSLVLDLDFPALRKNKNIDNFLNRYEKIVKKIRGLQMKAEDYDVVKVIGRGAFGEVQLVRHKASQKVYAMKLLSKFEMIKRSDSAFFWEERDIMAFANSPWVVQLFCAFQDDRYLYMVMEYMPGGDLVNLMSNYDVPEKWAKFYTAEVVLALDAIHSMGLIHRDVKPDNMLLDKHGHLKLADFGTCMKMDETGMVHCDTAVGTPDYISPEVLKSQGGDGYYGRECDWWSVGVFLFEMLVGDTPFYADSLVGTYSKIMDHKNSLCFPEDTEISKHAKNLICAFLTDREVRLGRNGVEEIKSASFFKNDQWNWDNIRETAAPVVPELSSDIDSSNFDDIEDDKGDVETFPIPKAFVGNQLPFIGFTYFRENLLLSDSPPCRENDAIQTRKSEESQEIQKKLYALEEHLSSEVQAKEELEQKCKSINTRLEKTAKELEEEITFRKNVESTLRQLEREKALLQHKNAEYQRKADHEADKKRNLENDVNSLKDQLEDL
Procedure: ROCK-II (ROKa) (5–20 mU diluted in 50 mM Tris pH 7.5, 0.1 mM EGTA, 0.1% 2-mercaptoethanol, and 1 mg/mL BSA) was assayed against the Long S6 substrate peptide ([…]) in a final volume of 25.5 μL containing 50 mM Tris pH 7.5, 0.1 mM EGTA, 30 μM Long S6 substrate peptide, 10 mM magnesium acetate, and 0.02 mM [33P-g-ATP] (50–1000 cpm/pmol) and incubated for 30 min at room temperature. Assays were stopped by addition of 5 μL of 0.5 M (3%) orthophosphoric acid and then harvested onto P81 Unifilter plates with a wash buffer of 50 mM orthophosphoric acid.

NRF2 = experiment: 3×ARE-LUC luciferase reporter assay; format: cell-based, human; conditions: for fold induction at 20 µM / fold induction at 6 µM / fold induction at 60 µM: Homo sapiens, 16 h; for NRF2 induction, CD (concentration needed to double luciferase expression): 3×ARE-LUC; for activation of the NRF2 reporter: in words, 6, 20 and 60 μM
Procedure: Transient transfections of HEK293T cells were performed with the expression vectors for TK-Renilla (Promega, Madison, […]) and the expression vector ARE-LUC (Dr. J. Alam, Dept. of Molecular Genetics, Ochsner Clinic Foundation, New Orleans, LA). Cells were seeded on 24-well plates (75,000 cells per well), cultured for 16 h, and transfected using calcium phosphate. Eight hours after transfections, cells were treated with 3 different concentrations of the compounds (6, 20, and 60 μM). […] After 16 h, the cells were lysed and assayed with a dual-luciferase assay system (Promega) according to the manufacturer’s instructions. Relative light units were measured in a GloMax 96 microplate luminometer with dual injectors (Promega).

[2] = 20 microM, supplementary CSV, read-out: NRF2 induction @ 20 microM (fold change)
[3] = HEK-293T, HEK293T, read-out: Luciferase assay response
[4] = HEK-293T, 20 µM, HEK293T, read-out: Luciferase assay response

| Compound | viability at 16 h, 20 µM (MTT viability assay) [%] | viability at 16 h, 60 µM (MTT viability assay) [%] | MTT (%) (HEK293T cells) | EC50 [1] [µM] | IC50 [1] [µM] | remaining activity at 10 µM (ROCK-II (ROKa)) [%] | IC50 (ROCK-II (ROKa)) [µM] | ROCK2 inhibition potency compared with fasudil (ROCK-II (ROKa)) | melting point [°C] | fold induction at 20 µM (NRF2; [2]) | fold induction at 6 µM (NRF2; [3]) | fold induction at 20 µM (NRF2; [4]) | fold induction at 60 µM (NRF2; [3]) | NRF2 induction, CD (concentration needed to double luciferase expression) (NRF2; HEK293T) [µM] | activation of the NRF2 reporter (NRF2) |
| --- | --- | --- | --- | --- | --- | --- | --- | --- | --- | --- | --- | --- | --- | --- | --- |
| O=C(/C=C/c1ccc(O)c(O)c1)N1CCN(S(=O)(=O)c2cccc3cnccc23)CC1 [Compound 1a, 3-(3,4-Dihydroxyphenyl)-1-(4-(isoquinolin-5-ylsulfonyl)piperazin-1-yl)prop-2-en-1-one] | 90.9 ± 1.63 | 100.7 ± 0.999 | < 20 | 9.93 | 11.9 ± 4.9 | 13.7 ± 1 | 0.79 | potency similar to the reference compound | 161 to 162 | 0.8 ± 0.02 | 0.7 ± 0.06 | 0.8 ± 0.02 | 1.2 ± 0.08 | – | – |
| O=C(/C=C/c1ccc(O)c(O)c1)N1CCCN(S(=O)(=O)c2cccc3cnccc23)CC1 [Compound 1b, 3-(3,4-Dihydroxyphenyl)-1-(4-(isoquinolin-5-ylsulfonyl)-1,4-diazepan-1-yl)prop-2-en-1-one] | 96.9 ± 1.13 | 84.7 ± 1.83 | – | 10 | 9.9 ± 1.4 | 7.8 ± 1 | 2.13 | – | – | 3.1 ± 0.04 | – | 3.1 ± 0.04 | 4.1 ± 0.06 | 12 | dose-dependent activation |
| O=C(CCc1ccc(O)c(O)c1)N1CCN(S(=O)(=O)c2cccc3cnccc23)CC1 [Compound 1c, 3-(3,4-Dihydroxyphenyl)-1-(4-(isoquinolin-5-ylsulfonyl)piperazin-1-yl)propan-1-one] | 104 ± 1.2 | 104.8 ± 0.434 | – | 10.1 | 11.9 ± 3 | 32.6 ± 10.3 | 0.32 | potency similar to the reference compound | 158 to 159 | 2.2 ± 0.09 | 1.7 ± 0.09 | 2.2 ± 0.09 | 5.8 ± 0.23 | 15 | dose-dependent activation |
| COc1cc(/C=C/C(=O)N2CCN(S(=O)(=O)c3cccc4cnccc34)CC2)ccc1O [Compound 1e, 3-(4-Hydroxy-3-methoxyphenyl)-1-(4-(isoquinolin-5-ylsulfonyl)piperazin-1-yl)prop-2-en-1-one] | 60.5 ± 2.73 | 55.9 ± 1.08 | – | 6.42 | – | 47 ± 15.1 | 2.33 | – | > 230 | 1.1 ± 0.16 | 1.2 ± 0.11 | 1.1 ± 0.16 | 1.2 ± 0.14 | – | – |
| COc1cc(/C=C/C(=O)N2CCCN(S(=O)(=O)c3cccc4cnccc34)CC2)ccc1O [Compound 1f, 3-(4-Hydroxy-3-methoxyphenyl)-1-(4-(isoquinolin-5-ylsulfonyl)-1,4-diazepan-1-yl)prop-2-en-1-one] | 93.9 ± 2.27 | 77.9 ± 3.9 | < 20 | 9.61 | – | 30.3 ± 7.4 | 2.61 | – | – | 0.8 ± 0.02 | 0.7 ± 0.06 | 0.8 ± 0.02 | 1.2 ± 0.08 | – | – |
| COc1cc(CCC(=O)N2CCN(S(=O)(=O)c3cccc4cnccc34)CC2)ccc1O [Compound 1g, 3-(4-Hydroxy-3-methoxyphenyl)-1-(4-(isoquinolin-5-ylsulfonyl)piperazin-1-yl)propan-1-one] | 93.7 ± 2.2 | 87.5 ± 2.32 | – | 10.3 | – | 53 ± 8.8 | > 10 | – | 156 to 157 | 0.8 ± 0.04 | 1 ± 0.01 | 0.8 ± 0.04 | 1.5 ± 0.22 | – | – |
| COc1cc(CCC(=O)N2CCCN(S(=O)(=O)c3cccc4cnccc34)CC2)ccc1O [Compound 1h, 3-(4-Hydroxy-3-methoxyphenyl)-1-(4-(isoquinolin-5-ylsulfonyl)-1,4-diazepan-1-yl)propan-1-one] | 99.4 ± 1.78 | 88.2 ± 2.43 | – | 12 | – | 27.4 ± 1.4 | 0.9 | – | – | 0.9 ± 0.02 | 1.2 ± 0.09 | 0.9 ± 0.02 | 1.2 ± 0.03 | – | – |
| COC(=O)/C=C/C(=O)OC [DMF, dimethyl fumarate, reference compound] | 90.4 ± 6.96 | 92.21 ± 0.462 | – | – | – | – | – | – | – | 4.9 ± 0.35 | – | 4.9 ± 0.35 | – | – | – |
| C[S+]([O-])CCCCN=C=S (centres unmarked) [SFN, sulforaphane, reference compound] | – | – | – | – | – | – | – | – | – | – | 4 ± 0.08 | – | – | – | – |
| Cc1c(C)c2c(c(C)c1O)CCC(C)(C(=O)O)O2 (centres unmarked) [Trolox, reference compound] | – | – | – | – | 12 ± 2.3 | – | – | – | – | – | – | – | – | – | – |
| O=C(O)/C=C/c1ccc(O)c(O)c1 [caffeic acid, reference compound] | – | – | – | 12.1 | – | – | – | – | – | – | – | – | – | – | – |
| O=S(=O)(c1cccc2cnccc12)N1CCCNCC1 [fasudil, 5-((1,4-Diazepan-1-yl)sulfonyl)isoquinoline, reference compound] | 92.1 ± 3.71 | 83.43 ± 0.715 | – | – | – | – | – | – | – | 1 ± 0.06 | 1.3 ± 0.21 | 1 ± 0.06 | 2.9 ± 0.49 | – | low activity |
| COc1cc(/C=C/C(=O)O)ccc1O [ferulic acid, reference compound] | – | – | – | 22.8 | – | – | – | – | – | – | – | – | – | – | – |
